Measured values: patent US20100249419A1, “UTILIZATION OF NOVEL COMPOUNDS WITH AMYLOID AFFINITY AND METHOD OF PRODUCING THE SAME” (NIHON MEDI-PHYSICS CO., LTD., priority 2007, published 2010)

Columns and labels:
[1] = Transferability into brain and clearance; type: in vivo, male Wistar rats; conditions: intravenous injection, rats
Method: Using Compound 1 (Example 10) and Compound 2 (Example 11), a time course change of radioactive accumulation in brain of male Wistar rats (7-week old) was measured.
A diethyl ether solution of Compound 1 (Example 10) prepared in Example 3, a diethyl ether solution of Compound 2 (Example 11) prepared in Example 6 and a diethyl ether solution of [^123I]-IMPY (Comparative Example 5) prepared in Reference Example 1 were each diluted with 10 mg/mL ascorbic acid-containing physiological saline solution to adjust to a radioactive concentration of 8-12 MBq/mL. 0.05 mL each of the prepared sample solutions was injected under thiopental anesthesia into the tail vein of the rats. The rats were sacrificed by bleeding from abdominal artery, and brains were removed and subjected to measurement of mass of brains and further subjected to measurement of radioactivity (hereinafter referred to as A in this Example) with a single channel analyzer (detector type: SP-20 manufactured by OHYO KOKEN KOGYO Co., Ltd.) 2, 5, 30 and 60 minutes after the injection. Further, the radioactivity level of the rest of the whole body was measured in the same manner as above (hereinafter referred to as B in this Example). Using these measurement results, radioactive distribution per unit weight of brain (% ID/g) at the respective time points were calculated in accordance with the following formula (3).
Three animals were used for the experiment at the respective time points.
Using Compound 4 and Compound 6, a time course change of radioactive accumulation in brain of male Wistar rats (7-week old) was measured.
Compound 4 (Example 22), Compound 6 (Example 23) and a solution of [^123I]-IMPY (Comparative Example 8) prepared above in Reference Example 1 were each diluted with a 10 mg/mL ascorbic acid-containing physiological saline solution to prepare solutions (20-31 MBq/mL in radioactive concentration). 0.05 mL each of the prepared sample solutions was injected under thiopental anesthesia into the tail vein of the respective Wistar rat (7-week old). The rats were sacrificed by bleeding from abdominal artery, and brains were removed and subjected to measurement of mass of brains and further subjected to measurement of radioactivity (hereinafter referred to as A in this Example) with a single channel analyzer (detector type: SP-20 manufactured by OHYO KOKEN KOGYO Co., Ltd.) 2, 5, 30 and 60 minutes after the injection. Further, the radioactivity level of the rest of the whole body was measured in the same manner as above (hereinafter referred to as B in this Example). Using these measurement results, radioactive distribution per unit weight of brain (% ID/g) at the respective time points were calculated in accordance with the following formula (5).

insulin amyloid = target: T1, insulin amyloid (Homo sapiens, UniProt P01308); test: In vitro binding of labeled compound to insulin amyloid (glass fiber filter); conditions: insulin amyloid 0.8 μg/mL, 22° C., 3 hours
T1 construct: 5 mg of insulin (manufactured by Sigma Aldrich Japan); purchased Sigma Aldrich Japan
Method: Insulin with cross -sheet structure was prepared by the following procedures (2) and (3) which was the method described in the known literature (Burke, M. J. et al., Biochemistry. 11, p. 2435-2439 (1972)) to which a little modification was made.
(2) 5 mg of insulin (manufactured by Sigma Aldrich Japan) was dissolved in 1 mL of deionized water which was adjusted to pH 2 with hydrochloric acid, and the solution was heated at 90° C. for 10 minutes, and then quickly cooled in dry ice/ethanol.
(3) A sample solution of (2) was heated at 90° C. for 5 minutes, and then quickly cooled in dry ice/ethanol. […]
(§1) (8) A solution of Compound 1 which was synthesized by the method above in Example 3 was prepared (radioactivity of 500 MBq/mL), and diluted with a 0.1% bovine serum albumin-containing phosphate buffer (pH 7.4) to prepare a solution of 1.2-112.9 pM in terms of the total amount of 2-[4′-(2″-hydroxyethoxy)phenyl]-6-iodoimidazo[1,2-a]pyridine. […]
(§2) (11) The glass fiber filter used for the filtration of the mixture was washed with a 0.1% bovine serum albumin-containing phosphate buffer (0.2 mL×5), and radioactivity of the glass fiber filter was measured with an autowell gamma system (manufactured by Aloka, Type: ARC-7001).
(12) From the measurement results of (11), relation between the amount of Compound 1 binding to amyloid and addition amount of amyloid was evaluated. […]

amylin amyloid = target: T2, amylin amyloid (Homo sapiens, UniProt P10997); test: In vitro binding of labeled compound to amylin amyloid (glass fiber filter); conditions: amylin amyloid 0.8 μg/mL, 22° C., 3 hours
T2 construct: Amylin (human) (manufactured by Wako); purchased Wako
T2 sequence (P10997 34-70 limits assumed): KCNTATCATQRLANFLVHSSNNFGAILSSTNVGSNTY
Method: (1) Using methods described in Examples 29 and 30, a 1 mg/mL suspension of aggregated amylin was prepared (hereinafter referred to as amyloid suspension in this Example) was prepared.
as §1, §2
(12) From the measurement results of (11), relation between the amount of Compound 1 binding to amyloid and addition amount of amyloid was evaluated. For a non-specific binding, it was determined from a sample in which no amyloid suspension was added above in (9) (Example 36). […]

T1 sequence (P01308 25-54 limits assumed): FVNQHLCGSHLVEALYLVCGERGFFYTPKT
T1 sequence (P01308 90-110 limits assumed): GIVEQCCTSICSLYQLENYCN

Substance	Radioactive distribution per unit weight of brain ([1]; After 2 min., Table 5) [% ID/g]	Radioactive distribution per unit weight of brain ([1]; After 5 min., Table 5) [% ID/g]	Radioactive distribution per unit weight of brain ([1]; After 30 min., Table 5) [% ID/g]	Radioactive distribution per unit weight of brain ([1]; After 60 min., Table 5) [% ID/g]	Radioactivity of the glass fiber filter versus amyloid non-added group (insulin amyloid)	Radioactivity of the glass fiber filter versus amyloid non-added group (amylin amyloid)	Radioactive distribution per unit weight of brain ([1]; After 2 min., Table 7) [% ID/g]	Radioactive distribution per unit weight of brain ([1]; After 5 min., Table 7) [% ID/g]	Radioactive distribution per unit weight of brain ([1]; After 30 min., Table 7) [% ID/g]	Radioactive distribution per unit weight of brain ([1]; After 60 min., Table 7) [% ID/g]
2-(4′-ethoxyphenyl)-6-[^123I]iodoimidazo[1,2-a]pyridine [Compound 2]	0.89	0.66	0.13	0.04	–	–	–	–	–	–
2-[4′-(2″-hydroxyethoxy)phenyl]-6-[^123I]iodoimidazo[1,2-a]pyridine [Compound 1]	0.90	0.52	0.06	0.01	all high compared to the group without amyloid suspension	all high compared to the group without amyloid suspension	–	–	–	–
2-[4′-(3″-hydroxypropoxy)phenyl]-6-[^123I]iodoimidazo[1,2-a]pyridine [Compound 6]	–	–	–	–	all high compared to the group without amyloid suspension	all high compared to the group without amyloid suspension	0.81	0.56	0.07	0.02
